Assays:
[1] = molecular target: T1, Carbonic anhydrase 1 (Homo sapiens, UniProt P00915); assay: Inhibition of hydratase-activity of CA1 from human erythrocytes by CO2-hydration method
[2] = molecular target: T1, Carbonic anhydrase 1; assay: Inhibition of CA1 from human erythrocytes by Lineweaver-Burke analysis
[3] = molecular target: T2, Carbonic anhydrase 2 (Homo sapiens, UniProt P00918); assay: Inhibition of hydratase-activity of human erythrocytes CA2 by CO2-hydration method
[4] = molecular target: T2, Carbonic anhydrase 2; assay: Inhibition of esterase-activity of human erythrocytes CA2 by spectrophotometry
[5] = molecular target: T2, Carbonic anhydrase 2; assay: Inhibition of human erythrocytes CA2 by Lineweaver-Burke analysis
[6] = molecular target: T1, Carbonic anhydrase 1; assay: Inhibition of esterase-activity of CA1 from human erythrocytes by spectrophotometry

T1 sequence (P00915 whole entry): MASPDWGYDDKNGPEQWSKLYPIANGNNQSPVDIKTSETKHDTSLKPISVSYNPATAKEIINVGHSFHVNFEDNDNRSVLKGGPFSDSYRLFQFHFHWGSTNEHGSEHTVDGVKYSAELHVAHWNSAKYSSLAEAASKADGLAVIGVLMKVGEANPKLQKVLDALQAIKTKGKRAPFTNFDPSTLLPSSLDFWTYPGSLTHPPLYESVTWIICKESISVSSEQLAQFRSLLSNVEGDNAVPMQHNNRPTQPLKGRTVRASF

IC50 ([1]; read-out: IC50) | IC50 ([2]; read-out: IC50) | IC50 ([3]; read-out: IC50) | IC50 ([4]; read-out: IC50) | IC50 ([5]; read-out: IC50) | IC50 ([6]; read-out: IC50) | IC50 [1] | IC50 [2] | IC50 [3] | IC50 [4] | IC50 [5] | IC50 [6] | SMILES
430 nM | 7.7 µM | 380 nM | 18 µM | 22 µM | 3200 nM |  |  |  |  |  |  | NS(=O)(=O)c1cc(C(=O)O)c(Cl)cc1Cl
 |  |  |  |  |  | Not Active | Not Active | Not Active | Not Active | Not Active | Not Active | NCc1ccccn1
260 nM | 0.25 µM | 300 nM | 0.29 µM | 0.22 µM | 320 nM |  |  |  |  |  |  | NCc1ccccn1.NS(=O)(=O)c1cc(C(=O)O)c(Cl)cc1Cl

Source: ChEMBL document CHEMBL1157726, “Synthesis, characterization and antiglaucoma activity of a novel proton transfer compound and a mixed-ligand Zn(II) complex” (Bioorg Med Chem, 2010)
